Assay results published in the NIST ThermoML archive (doi:10.1021/je030236t).
± gives the expanded uncertainty stated by the source.

Assays:
[1] = Liquid
[2] = molar enthalpy of vaporization or sublimation; details: 298.15 K; Liquid

Structure (SMILES) | vapor or sublimation pressure ([1]; 298.15 K) | vapor or sublimation pressure ([1]; 310 K) | vapor or sublimation pressure ([1]; 320 K) | vapor or sublimation pressure ([1]; 330 K) | vapor or sublimation pressure ([1]; 340 K) | vapor or sublimation pressure ([1]; 350 K) | vapor or sublimation pressure ([1]; 360 K) | vapor or sublimation pressure ([1]; 370 K) | vapor or sublimation pressure ([1]; 380 K) | vapor or sublimation pressure ([1]; 390 K) | vapor or sublimation pressure ([1]; 400 K) | vapor or sublimation pressure ([1]; 410 K) | vapor or sublimation pressure ([1]; 420 K) | vapor or sublimation pressure ([1]; 430 K) | vapor or sublimation pressure ([1]; 440 K) | vapor or sublimation pressure ([1]; 450 K) | vapor or sublimation pressure ([1]; 460 K) | vapor or sublimation pressure ([1]; 470 K) | vapor or sublimation pressure ([1]; 480 K) | vapor or sublimation pressure ([1]; 490 K) | further results
CCCCCCCCCCCCCCCCCCCCCCCCCCCCCCCC [dotriacontane] | 3.62e-12 ± 7.3e-13 kPa | 4.33e-11 ± 8.7e-12 kPa | 2.95e-10 ± 5.9e-11 kPa | 1.74e-09 ± 3.5e-10 kPa | 8.99e-09 ± 1.8e-09 kPa | 4.12e-08 ± 8.2e-09 kPa | 1.69e-07 ± 3.4e-08 kPa | 6.31e-07 ± 1.3e-07 kPa | 2.14e-06 ± 4.3e-07 kPa | 6.71e-06 ± 1.3e-06 kPa | 1.95e-05 ± 3.9e-06 kPa | 5.27e-05 ± 1e-05 kPa | 0.000134 ± 2.7e-05 kPa | 0.000321 ± 6.4e-05 kPa | 0.000729 ± 0.00015 kPa | 0.00158 ± 0.00032 kPa | 0.00325 ± 0.00065 kPa | 0.00643 ± 0.0013 kPa | 0.0122 ± 0.0024 kPa | 0.0224 ± 0.0045 kPa | vapor or sublimation pressure ([1]; 500 K): 0.0398 ± 0.008 kPa; vapor or sublimation pressure ([1]; 510 K): 0.0684 ± 0.014 kPa; vapor or sublimation pressure ([1]; 520 K): 0.114 ± 0.023 kPa; vapor or sublimation pressure ([1]; 530 K): 0.185 ± 0.037 kPa; vapor or sublimation pressure ([1]; 540 K): 0.294 ± 0.059 kPa; vapor or sublimation pressure ([1]; 550 K): 0.454 ± 0.091 kPa; vapor or sublimation pressure ([1]; 560 K): 0.687 ± 0.14 kPa; vapor or sublimation pressure ([1]; 570 K): 1.02 ± 0.2 kPa; vapor or sublimation pressure ([1]; 580 K): 1.48 ± 0.3 kPa; molar enthalpy [2]: 38.8 ± 2.01 kcal/mol
CCCCCCCCCCCCCCCCCCCCCCCCCCCCCCCCCCCC [hexatriacontane] | 4.51e-14 ± 1.4e-14 kPa | 7.39e-13 ± 2.2e-13 kPa | 6.41e-12 ± 1.9e-12 kPa | 4.72e-11 ± 1.4e-11 kPa | 3e-10 ± 9e-11 kPa | 1.66e-09 ± 5e-10 kPa | 8.16e-09 ± 2.5e-09 kPa | 3.58e-08 ± 1.1e-08 kPa | 1.42e-07 ± 4.3e-08 kPa | 5.12e-07 ± 1.5e-07 kPa | 1.7e-06 ± 5.1e-07 kPa | 5.2e-06 ± 1.6e-06 kPa | 1.48e-05 ± 4.4e-06 kPa | 3.96e-05 ± 1.2e-05 kPa | 9.96e-05 ± 3e-05 kPa | 0.000237 ± 7.1e-05 kPa | 0.000534 ± 0.00016 kPa | 0.00115 ± 0.00035 kPa | 0.00236 ± 0.00071 kPa | 0.00467 ± 0.0014 kPa | vapor or sublimation pressure ([1]; 500 K): 0.00888 ± 0.0027 kPa; vapor or sublimation pressure ([1]; 510 K): 0.0163 ± 0.0049 kPa; vapor or sublimation pressure ([1]; 520 K): 0.0289 ± 0.0087 kPa; vapor or sublimation pressure ([1]; 530 K): 0.0498 ± 0.015 kPa; vapor or sublimation pressure ([1]; 540 K): 0.0834 ± 0.025 kPa; vapor or sublimation pressure ([1]; 550 K): 0.136 ± 0.041 kPa; vapor or sublimation pressure ([1]; 560 K): 0.216 ± 0.065 kPa; vapor or sublimation pressure ([1]; 570 K): 0.336 ± 0.1 kPa; vapor or sublimation pressure ([1]; 580 K): 0.51 ± 0.15 kPa; molar enthalpy [2]: 43.7 ± 2.25 kcal/mol
CCCCCCCCCCCCCCCCCCCCCCCCCCCCCCCCCCCCC [heptatriacontane] | 1.49e-14 ± 4.5e-15 kPa | 2.63e-13 ± 7.9e-14 kPa | 2.43e-12 ± 7.3e-13 kPa | 1.89e-11 ± 5.7e-12 kPa | 1.26e-10 ± 3.8e-11 kPa | 7.35e-10 ± 2.2e-10 kPa | 3.77e-09 ± 1.1e-09 kPa | 1.72e-08 ± 5.2e-09 kPa | 7.09e-08 ± 2.1e-08 kPa | 2.65e-07 ± 8e-08 kPa | 9.09e-07 ± 2.7e-07 kPa | 2.87e-06 ± 8.6e-07 kPa | 8.43e-06 ± 2.5e-06 kPa | 2.31e-05 ± 6.9e-06 kPa | 5.96e-05 ± 1.8e-05 kPa | 0.000145 ± 4.4e-05 kPa | 0.000335 ± 0.0001 kPa | 0.000735 ± 0.00022 kPa | 0.00154 ± 0.00046 kPa | 0.0031 ± 0.00093 kPa | vapor or sublimation pressure ([1]; 500 K): 0.006 ± 0.0018 kPa; vapor or sublimation pressure ([1]; 510 K): 0.0112 ± 0.0034 kPa; vapor or sublimation pressure ([1]; 520 K): 0.0202 ± 0.0061 kPa; vapor or sublimation pressure ([1]; 530 K): 0.0353 ± 0.011 kPa; vapor or sublimation pressure ([1]; 540 K): 0.0598 ± 0.018 kPa; vapor or sublimation pressure ([1]; 550 K): 0.0987 ± 0.03 kPa; vapor or sublimation pressure ([1]; 560 K): 0.159 ± 0.048 kPa; vapor or sublimation pressure ([1]; 570 K): 0.25 ± 0.075 kPa; vapor or sublimation pressure ([1]; 580 K): 0.383 ± 0.12 kPa; molar enthalpy [2]: 44.8 ± 2.29 kcal/mol
CCCCCCCCCCCCCCCCCCCCCCCCCCCCCCCCC [tritriacontane] | 1.19e-12 ± 2.4e-13 kPa | 1.54e-11 ± 3.1e-12 kPa | 1.11e-10 ± 2.2e-11 kPa | 6.95e-10 ± 1.4e-10 kPa | 3.79e-09 ± 7.6e-10 kPa | 1.82e-08 ± 3.6e-09 kPa | 7.83e-08 ± 1.6e-08 kPa | 3.04e-07 ± 6.1e-08 kPa | 1.07e-06 ± 2.1e-07 kPa | 3.49e-06 ± 7e-07 kPa | 1.05e-05 ± 2.1e-06 kPa | 2.92e-05 ± 5.8e-06 kPa | 7.65e-05 ± 1.5e-05 kPa | 0.000189 ± 3.8e-05 kPa | 0.000439 ± 8.8e-05 kPa | 0.000972 ± 0.00019 kPa | 0.00205 ± 0.00041 kPa | 0.00415 ± 0.00083 kPa | 0.00805 ± 0.0016 kPa | 0.015 ± 0.003 kPa | vapor or sublimation pressure ([1]; 500 K): 0.0272 ± 0.0054 kPa; vapor or sublimation pressure ([1]; 510 K): 0.0474 ± 0.0095 kPa; vapor or sublimation pressure ([1]; 520 K): 0.0804 ± 0.016 kPa; vapor or sublimation pressure ([1]; 530 K): 0.133 ± 0.027 kPa; vapor or sublimation pressure ([1]; 540 K): 0.213 ± 0.043 kPa; vapor or sublimation pressure ([1]; 550 K): 0.334 ± 0.067 kPa; vapor or sublimation pressure ([1]; 560 K): 0.511 ± 0.1 kPa; vapor or sublimation pressure ([1]; 570 K): 0.767 ± 0.15 kPa; vapor or sublimation pressure ([1]; 580 K): 1.13 ± 0.23 kPa; molar enthalpy [2]: 40.1 ± 2.06 kcal/mol
